For the test, the system named is P388 leukemia ip, CD2F1 mice, survival T/C. As to the kind of experiment: NCI In Vivo Anticancer Drug Screen. Data for tumor model P388 Leukemia (intraperitoneal) in CD2F1 (CDF1) mice. As to conditions: endpoint: median survival time, higher = longer survival. The procedure, abridged: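 Mice carrying the transplanted tumor received test compound or vehicle. Survival was recorded in each group, and the value is the treated-group measurement divided by that of the vehicle-treated control group.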

The mark [1] stands for this setting: dose: 3.12 mg/kg/injection, schedule: Q01DX009 (ip), vehicle: saline.
Setting [2] is: dose: 12.5 mg/kg/injection, schedule: Q01DX009 (ip), vehicle: saline.
[3] abbreviates: dose: 25.0 mg/kg/injection, schedule: Q01DX009 (ip), vehicle: saline.
[4] abbreviates: dose: 100.0 mg/kg/injection, schedule: Q01DX009 (ip), vehicle: saline.
[5] abbreviates: dose: 50.0 mg/kg/injection, schedule: Q01DX009 (ip), vehicle: saline.
[6] abbreviates: dose: 50.0 mg/kg/injection, schedule: Q01DX009 (ip), vehicle: saline with Tween-80.
Where [7] appears, read: dose: 100.0 mg/kg/injection, schedule: Q01DX009 (ip), vehicle: saline with Tween-80.
Where [8] appears, read: dose: 200.0 mg/kg/injection, schedule: Q01DX009 (ip), vehicle: saline with Tween-80.
Setting [9] is: dose: 50.0 mg/kg/injection, schedule: Q01DX005 (ip), vehicle: Klucel (hydroxypropylcellulose) (HPC).
Setting [10] is: dose: 100.0 mg/kg/injection, schedule: Q01DX005 (ip), vehicle: Klucel (hydroxypropylcellulose) (HPC).
[11] abbreviates: dose: 200.0 mg/kg/injection, schedule: Q01DX005 (ip), vehicle: Klucel (hydroxypropylcellulose) (HPC).
[12] abbreviates: dose: 60.0 mg/kg/injection, schedule: Q01DX005 (ip), vehicle: saline with Tween-80.
Where [13] appears, read: dose: 120.0 mg/kg/injection, schedule: Q01DX005 (ip), vehicle: saline with Tween-80.
Setting [14] is: dose: 240.0 mg/kg/injection, schedule: Q01DX005 (ip), vehicle: saline with Tween-80.

SMILES strings stand for the structures. Several values for one entry are separate records, joined by “and”; a condition that tells them apart may be missing. Identical values can stand only once. Inconclusive results and toxic doses are left out.

On to `C[N+](C)([O-])CCCNc1c2ccccc2nc2cccc([N+](=O)[O-])c12`, for which the T/C was 108 % of control (dose: 0.79 mg/kg/injection, schedule: Q01DX009 (ip), vehicle: saline); 110 % of control (dose: 1.56 mg/kg/injection, schedule: Q01DX009 (ip), vehicle: saline); 117 % of control and 118 % of control under setting [1].
As for `COc1ccc(NN=O)nc1Br`, the T/C reads like this: under setting [1], 108 % of control; (dose: 6.25 mg/kg/injection, schedule: Q01DX009 (ip), vehicle: saline) 108 % of control; under setting [2], 108 % of control and 109 % of control; under setting [3], 110 % of control and 120 % of control; under setting [4], 157 % of control.
As for `Nc1nc(N)nc(-c2ccccc2Cl)n1`, the T/C under setting [5] was 117 % of control; the T/C under setting [4] was 93 % of control; the T/C (dose: 200.0 mg/kg/injection, schedule: Q01DX009 (ip), vehicle: saline) was 117 % of control.
Consider `CC1=C(CO)C(=O)OC(C(C)C2CCC3C4CC5OC56C(O)CCC(=O)C6(C)C4CCC23C)C1` (centres undefined), for which the T/C runs as follows: (dose: 11.15 mg/kg/injection, schedule: Q01DX009 (ip), vehicle: saline + alcohol) 95 % of control; (dose: 22.3 mg/kg/injection, schedule: Q01DX009 (ip), vehicle: saline + alcohol) 99 % of control; (dose: 44.6 mg/kg/injection, schedule: Q01DX009 (ip), vehicle: saline + alcohol) 101 % of control.
Consider `Cc1nn(C(=O)c2c(-c3ccccc3)noc2C)c(C)c1N=Nc1cc(C(F)(F)F)cc(C(F)(F)F)c1`, for which the T/C is 87 % of control under setting [6], 87 % of control under setting [7] and 97 % of control under setting [8].
Turning to `CCCCC(NC(=O)C(CCCC)NC(=O)OCc1ccccc1)C(=O)O` (centres undefined), the T/C by setting is: under setting [9], 108 % of control; under setting [10], 93 % of control; under setting [11], 95 % of control.
With `N#Cc1nn(-c2ccccc2)sc1=N`, the T/C (dose: 3.13 mg/kg/injection, schedule: Q01DX009 (ip), vehicle: other) is 104 % of control; the T/C (dose: 6.25 mg/kg/injection, schedule: Q01DX009 (ip), vehicle: other) is 110 % of control; the T/C (dose: 12.5 mg/kg/injection, schedule: Q01DX009 (ip), vehicle: other) was 100 % of control; the T/C (dose: 25.0 mg/kg/injection, schedule: Q01DX009 (ip), vehicle: other) is 94 % of control; the T/C (dose: 50.0 mg/kg/injection, schedule: Q01DX009 (ip), vehicle: other) is 88 % of control; the T/C (dose: 100.0 mg/kg/injection, schedule: Q01DX009 (ip), vehicle: other) is 88 % of control.
Turning to `COc1ccc(CCN2C(=O)C(=O)N(C(C)C)C2=O)cc1OC`, the T/C was 86 % of control (dose: 50.0 mg/kg/injection, schedule: Q01DX009 (ip), vehicle: Klucel (hydroxypropylcellulose) (HPC)); 91 % of control (dose: 100.0 mg/kg/injection, schedule: Q01DX009 (ip), vehicle: Klucel (hydroxypropylcellulose) (HPC)); 95 % of control (dose: 200.0 mg/kg/injection, schedule: Q01DX009 (ip), vehicle: Klucel (hydroxypropylcellulose) (HPC)).
In the case of `CC1=C/C(=C\C(=O)N2CCCCC2)N=C(N[N+](=O)[O-])N1`, the T/C runs as follows: (dose: 50.0 mg/kg/injection, schedule: Q01DX009 (ip), vehicle: distilled water + Tween-80 + alcohol) 111 % of control; (dose: 100.0 mg/kg/injection, schedule: Q01DX009 (ip), vehicle: distilled water + Tween-80 + alcohol) 115 % of control; (dose: 200.0 mg/kg/injection, schedule: Q01DX009 (ip), vehicle: distilled water + Tween-80 + alcohol) 105 % of control.
Regarding `COc1ccc2nc(NCCNCCO)cc(NCCNCCO)c2c1`, the T/C is 98 % of control (dose: 30.0 mg/kg/injection, schedule: Q01DX005 (ip), vehicle: water) and 97 % of control (dose: 60.0 mg/kg/injection, schedule: Q01DX005 (ip), vehicle: water).
`CCOc1cc2c(cc1C(C)c1cc(OC)c(OC)c(OC)c1)OCO2` (centres undefined): the T/C is, setting by setting: under setting [9], 96 % of control; under setting [10], 102 % of control; under setting [11], 96 % of control.
With `CC(C)(C)OC(=O)N[C@@H](CNOCc1ccccc1)C(N)=O`, the T/C by setting is: (dose: 50.0 mg/kg/injection, schedule: Q01DX005 (ip), vehicle: saline with Tween-80) 92 % of control; (dose: 100.0 mg/kg/injection, schedule: Q01DX005 (ip), vehicle: saline with Tween-80) 92 % of control; (dose: 200.0 mg/kg/injection, schedule: Q01DX005 (ip), vehicle: saline with Tween-80) 86 % of control.
On to `O=S(=O)(O)/[N+]([O-])=N/O`, for which the T/C by setting is: (dose: 100.0 mg/kg/injection, schedule: Q04DX003 (ip), vehicle: saline) 100 % of control; (dose: 200.0 mg/kg/injection, schedule: Q04DX003 (ip), vehicle: saline) 100 % of control; (dose: 400.0 mg/kg/injection, schedule: Q04DX003 (ip), vehicle: saline) 100 % of control.
For the compound `O=C(O)c1c[nH]c2cc(-n3cccc3)ccc2c1=O`, the T/C is 102 % of control (dose: 15.0 mg/kg/injection, schedule: Q01DX005 (ip), vehicle: saline with Tween-80); 101 % of control (dose: 30.0 mg/kg/injection, schedule: Q01DX005 (ip), vehicle: saline with Tween-80); 102 % of control and 88 % of control under setting [12].
On to `CCCC(=O)Nc1nc2ccc([N+](=O)[O-])cc2s1`, for which the T/C (dose: 12.5 mg/kg/injection, schedule: Q01DX009 (ip), vehicle: saline with Tween-80) is 106 % of control; the T/C under setting [2] is 97 % of control; the T/C (dose: 25.0 mg/kg/injection, schedule: Q01DX009 (ip), vehicle: saline with Tween-80) was 97 % of control; the T/C under setting [3] is 98 % of control; the T/C under setting [6] is 99 % of control and 123 % of control; the T/C under setting [5] was 98 % of control. The T/C reads like this: under setting [7], 110 % of control and 96 % of control; under setting [4], 101 % of control; under setting [8], 108 % of control.
For `CC(O)CN(CCN(CC(C)O)CC(C)O)CC(C)O.[Cl-].[Co+2]` (centres undefined), the T/C is 108 % of control and 111 % of control under setting [2]; 107 % of control and 110 % of control under setting [3]; 111 % of control and 112 % of control and 119 % of control under setting [5]; 123 % of control and 92 % of control under setting [4].
Turning to `CN(CN(C)N=Nc1ccc(Br)cc1)CN(C)N=Nc1ccc(Br)cc1`, the T/C is, setting by setting: (dose: 60.0 mg/kg/injection, schedule: Q01DX005 (ip), vehicle: Klucel (hydroxypropylcellulose) (HPC)) 100 % of control; (dose: 120.0 mg/kg/injection, schedule: Q01DX005 (ip), vehicle: Klucel (hydroxypropylcellulose) (HPC)) 92 % of control.
Regarding `CCCCCCCCCCCCC(O)CCC1CCCCN1` (centres undefined), the T/C by setting is: (dose: 50.0 mg/kg/injection, schedule: Q01DX005 (ip), vehicle: saline) 102 % of control; (dose: 100.0 mg/kg/injection, schedule: Q01DX005 (ip), vehicle: saline) 105 % of control.
As for `COC(=O)c1[c]([Sn]([CH3])([CH3])[CH3])n[n]([Pb]([CH3])([CH3])[CH3])c1C(=O)OC`, the T/C (dose: 6.25 mg/kg/injection, schedule: Q04DX003 (ip), vehicle: saline) is 95 % of control; the T/C (dose: 12.5 mg/kg/injection, schedule: Q04DX003 (ip), vehicle: saline) was 95 % of control; the T/C (dose: 25.0 mg/kg/injection, schedule: Q04DX003 (ip), vehicle: saline) is 95 % of control.
In the case of `COc1ccc(C2c3cc4c(cc3OC(C)(N3CCCC3)C2C)OCO4)c(OC)c1OC` (centres undefined), the T/C is, setting by setting: under setting [12], 100 % of control; under setting [13], 95 % of control; under setting [14], 96 % of control.
In the case of `O=C1CS(=O)(=O)C(c2ccc(F)cc2)N1N1C(=O)CS(=O)(=O)C1c1ccc(F)cc1` (centres undefined), the T/C reads like this: under setting [12], 91 % of control; under setting [13], 93 % of control; under setting [14], 93 % of control.
For the compound `O=C(O)c1cccc2c1Cc1ccccc1-2`, the T/C is, setting by setting: under setting [9], 94 % of control; under setting [10], 92 % of control; under setting [11], 88 % of control.
With `O=S(=O)(O)SCCN1CCCC1`, the T/C was 105 % of control under setting [2], 110 % of control under setting [3] and 110 % of control under setting [5].
Regarding `COc1ccc(-c2cc[n+]([O-])c(C)c2C)c(OC)c1OC`, the T/C is, setting by setting: under setting [6], 94 % of control; under setting [7], 96 % of control; under setting [8], 92 % of control.
For `C1COC(NC2CC3CCC2C3)=N1` (centres undefined), the T/C runs as follows: (dose: 6.25 mg/kg/injection, schedule: Q04DX003 (ip), vehicle: saline with Tween-80) 100 % of control; (dose: 12.5 mg/kg/injection, schedule: Q04DX003 (ip), vehicle: saline with Tween-80) 100 % of control; (dose: 25.0 mg/kg/injection, schedule: Q04DX003 (ip), vehicle: saline with Tween-80) 100 % of control.
